One assay addresses T1, ETA (Sus scrofa, UniProt Q29010).
T1 construct: crude receptor membrane samples (ETA) from smooth muscles of porcine thoracic aorta; from tissue; host or cells: porcine thoracic aorta smooth muscle, endothelium removed; crude membranes
T1 sequence (Q29010 21-427): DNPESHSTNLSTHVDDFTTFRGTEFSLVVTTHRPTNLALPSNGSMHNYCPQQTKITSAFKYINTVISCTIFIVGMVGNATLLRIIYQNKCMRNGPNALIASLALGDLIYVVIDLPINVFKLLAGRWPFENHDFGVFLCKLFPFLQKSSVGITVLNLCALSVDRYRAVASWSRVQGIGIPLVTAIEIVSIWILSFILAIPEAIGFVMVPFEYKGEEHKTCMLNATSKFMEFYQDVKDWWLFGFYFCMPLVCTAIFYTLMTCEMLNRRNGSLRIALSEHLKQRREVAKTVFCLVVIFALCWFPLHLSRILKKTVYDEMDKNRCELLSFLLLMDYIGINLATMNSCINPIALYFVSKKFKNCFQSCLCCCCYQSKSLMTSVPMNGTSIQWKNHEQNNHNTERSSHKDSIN
Nature of the assay: Endothelin binding inhibition experiment, 125I-endothelin-1 binding, ETA, membranes from smooth muscles of porcine thoracic aorta. Conditions: 125I-endothelin-1 2×10^-11 M, 2 hours at 25° C., pH 7.4. As to the method:
(§1) Endothelin binding inhibition experiment
Preparation of crude receptor membrane samples (ETA) from smooth muscles of porcine thoracic aorta:
Porcine thoracic aorta which was separated from the fatty tissue and then was removed endothelium with gauze was minced, and then homogenized in three times the volume of Tris-HCl buffer (pH 7.4) (buffer A) containing 0.25M sucrose, 3 mM ethylenediaminetetraacetic acid, 5 μg/ml of aprotinin, 10 μg/ml of pepstatin A, 10 μg/ml of leupeptin, and 0.1 μM p-amidinophenylmethanesulfonyl fluoride. After centrifugation for 30 minutes at 1,000×g, the supernatant was further centrifuged for 30 minutes at 100,000×g. The pellets were suspended in buffer A, and recentrifuged for 30 minutes at 100,000×g. The pellets were suspended in buffer A and the suspension was stored at -80° C. ^125 I-Endothelin-1 binding assay:
The thus-obtained membrane sample (1 μl) was incubated together with ^125 I-endothelin-1 (2×10^-11 M) and various concentrations of the compounds, for 2 hours at 25° C., in 250 μl in total volume of 50 mM Tris-HCl buffer (pH 7.4) containing 0.5% bovine serum albumin. The incubated mixture was filtered by use of HVPP filters (pore size 0.45 μm, product of Milipore). The filters were washed with cold buffer A four times, and then measured with a gamma-ray counter (Aroka Autowell Gamma System ARC-251). Preparation of crude receptor membrane samples (ETB) from rat brain and assay of ^125 I endothelin-1: […]

A further assay deals with T2, ETB (Rattus norvegicus, UniProt P21451).
T2 construct: Rat brain tissue was minced, and a crude receptor membrane sample was prepared; from tissue; host or cells: rat brain; crude membranes
T2 sequence (P21451 27-442): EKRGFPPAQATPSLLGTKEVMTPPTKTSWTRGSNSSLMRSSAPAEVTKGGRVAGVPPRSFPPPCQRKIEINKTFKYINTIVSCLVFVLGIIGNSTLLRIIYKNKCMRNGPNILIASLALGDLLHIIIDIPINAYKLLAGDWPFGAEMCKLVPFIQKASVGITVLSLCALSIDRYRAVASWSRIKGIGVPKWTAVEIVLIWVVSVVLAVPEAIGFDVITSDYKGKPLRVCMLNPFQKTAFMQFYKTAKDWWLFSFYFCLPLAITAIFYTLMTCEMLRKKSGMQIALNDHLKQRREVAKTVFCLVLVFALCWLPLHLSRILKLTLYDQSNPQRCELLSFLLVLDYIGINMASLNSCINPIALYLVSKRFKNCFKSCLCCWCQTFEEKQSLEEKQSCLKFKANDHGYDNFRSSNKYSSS
The assay is described as follows: Endothelin binding inhibition experiment, 125I-endothelin-1 binding, ETB, membranes from rat brain. To be noted: 125I-endothelin-1 2×10^-11 M, 2 hours at 25° C., pH 7.4. The method, then: as §1
The thus-obtained membrane sample (1 μl) was incubated together with ^125 I-endothelin-1 (2×10^-11 M) and various concentrations of the compounds, for 2 hours at 25° C., in 250 μl in total volume of 50 mM Tris-HCl buffer (pH 7.4) containing 0.5% bovine serum albumin. The incubated mixture was filtered by use of HVPP filters (pore size 0.45 μm, product of Milipore). The filters were washed with cold buffer A four times, and then measured with a gamma-ray counter (Aroka Autowell Gamma System ARC-251). Preparation of crude receptor membrane samples (ETB) from rat brain and assay of ^125 I endothelin-1:
Rat brain tissue was minced, and a crude receptor membrane sample was prepared in a manner similar to that used in the aforementioned case of porcine thoracic aorta. Also, ^125 I-endothelin-1 assay was performed in the same manner as described above.

For `COc1ccccc1Oc1c(NS(=O)(=O)c2ccc(C(C)(C)C)cc2)nc(N2CCOCC2)nc1OCCC(=O)Nc1ccccc1C(C)C` [Example 2, N-(2-isopropylphenyl)-3-[6-(4-t-butylphenylsulfonylamino)-5-(2-methoxyphenoxy)-2-morpholino-4-pyrimidinyloxy]propionamide], the IC50 at ETA was determined as 0.063 µM; on ETB it was 0.00086 µM.

In the case of `COc1ccccc1Oc1c(NS(=O)(=O)c2ccc(C(C)(C)C)cc2)nc(N2CCOCC2)nc1OCCC(=O)Nc1ccccn1` [Example 3, N-(2-pyridyl)-3-[6-(4-t-butylphenylsulfonylamino)-5-(2-methoxyphenoxy)-2-morpholino-4-pyrimidinyloxy]propionamide], the figures for the IC50 at ETA and on ETB were 0.032 µM and 0.029 µM, respectively.

On to `COc1ccccc1Oc1c(NS(=O)(=O)c2ccc(C(C)(C)C)cc2)nc(N2CCN(C=O)CC2)nc1OCCC(=O)Nc1ccccc1C(C)C` [Example 13, N-(2-isopropylphenyl)-3-[6-(4-t-butylphenylsulfonylamino)-2-(4-formylpiperazinyl)-5-(2-methoxyphenoxy)-4-pyrimidinyloxy]-propionamide], for which the IC50 at ETA turned out to be 0.068 µM; on ETB it was 0.0054 µM.

Take `COc1ccccc1Oc1c(NS(=O)(=O)c2ccc(C(C)(C)C)cc2)nc(N2CCOCC2)nc1OCCC(=O)OCc1ccccc1` [Example 23, benzyl 3-[6-(4-t-butylphenylsulfonylamino)-5-(2-methoxyphenoxy)-2-morpholino-4-pyrimidinyloxy]propionate]: the IC50 at ETA stood at 0.24 µM; on ETB, 0.0051 µM.

As usually defined, the IC50 is the concentration needed to halve the response being measured. High values mean lower potency, low ones higher potency.

The record behind these values is patent US5883092A, “Pyrimidine derivatives as endothelin antagonists” (Kowa Co., Ltd., priority 1995, dated 1999).
